From PubChem BioAssay (NCI)
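Test compounds were applied to cells in 96-well plates for 48 hours at 5 doses. TGI: total growth inhibition.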

How the values were obtained:
Test in all cases: NCI anticancer screen, dose series, 48 h
HS 578T breast = tested on: HS 578T breast
MDA-MB-435 = tested on: MDA-MB-435
MDA-MB-231 breast = tested on: MDA-MB-231 breast
A498 renal = tested on: A498 renal
SK-OV-3 ovarian = tested on: SK-OV-3 ovarian
NCI-H460 lung = tested on: NCI-H460 lung
BT-549 breast = tested on: BT-549 breast
HT29 colon = tested on: HT29 colon
SF-268 CNS = tested on: SF-268 CNS
SW-620 colon = tested on: SW-620 colon
UO-31 renal = tested on: UO-31 renal
SR leukemia = tested on: SR leukemia
SF-295 CNS = tested on: SF-295 CNS
NCI-H226 lung = tested on: NCI-H226 lung
KM12 colon = tested on: KM12 colon
T-47D breast = tested on: T-47D breast
NCI/ADR-RES ovarian = tested on: NCI/ADR-RES ovarian
COLO 205 colon = tested on: COLO 205 colon
TK-10 renal = tested on: TK-10 renal
UACC-62 melanoma = tested on: UACC-62 melanoma
HL-60(TB) leukemia = tested on: HL-60(TB) leukemia
OVCAR-8 ovarian = tested on: OVCAR-8 ovarian
ACHN renal = tested on: ACHN renal
HOP-92 NSCLC = tested on: HOP-92 NSCLC
HCC-2998 colon = tested on: HCC-2998 colon
U251 CNS = tested on: U251 CNS
IGROV1 ovarian = tested on: IGROV1 ovarian
DU-145 prostate = tested on: DU-145 prostate
OVCAR-5 ovarian = tested on: OVCAR-5 ovarian
RPMI-8226 leukemia = tested on: RPMI-8226 leukemia
M14 melanoma = tested on: M14 melanoma
SK-MEL-5 melanoma = tested on: SK-MEL-5 melanoma
RXF 393 renal = tested on: RXF 393 renal
HCT-116 colon = tested on: HCT-116 colon
CAKI-1 renal = tested on: CAKI-1 renal
K-562 leukemia = tested on: K-562 leukemia
HOP-62 NSCLC = tested on: HOP-62 NSCLC
HCT-15 colon = tested on: HCT-15 colon
CCRF-CEM leukemia = tested on: CCRF-CEM leukemia
UACC-257 melanoma = tested on: UACC-257 melanoma
SNB-75 CNS = tested on: SNB-75 CNS
LOX IMVI melanoma = tested on: LOX IMVI melanoma
NCI-H522 lung = tested on: NCI-H522 lung
OVCAR-3 ovarian = tested on: OVCAR-3 ovarian
SK-MEL-28 melanoma = tested on: SK-MEL-28 melanoma
SK-MEL-2 melanoma = tested on: SK-MEL-2 melanoma
EKVX NSCLC = tested on: EKVX NSCLC
MOLT-4 leukemia = tested on: MOLT-4 leukemia
NCI-H23 lung = tested on: NCI-H23 lung
786-0 renal = tested on: 786-0 renal
PC-3 prostate = tested on: PC-3 prostate
MALME-3M melanoma = tested on: MALME-3M melanoma
A549 NSCLC = tested on: A549 NSCLC
OVCAR-4 ovarian = tested on: OVCAR-4 ovarian
SNB-19 CNS = tested on: SNB-19 CNS
MCF7 breast = tested on: MCF7 breast
SN12C renal = tested on: SN12C renal
SF-539 CNS = tested on: SF-539 CNS

Compound `CC1(C)OC2C(O)CN3CCS[C@H]3C2O1` (stereo partly drawn) has a TGI (HS 578T breast) greater than 100 µM, a TGI (MDA-MB-435) greater than 100 µM and a TGI (MDA-MB-231 breast) greater than 100 µM. The TGI (A498 renal) was greater than 100 µM, the TGI (SK-OV-3 ovarian) was greater than 100 µM and the TGI (NCI-H460 lung) was greater than 100 µM. For the same compound, the TGI (BT-549 breast) was greater than 100 µM, the TGI (HT29 colon) was greater than 100 µM and the TGI (SF-268 CNS) was greater than 100 µM. For the same compound, the TGI (SW-620 colon) was greater than 100 µM, the TGI (UO-31 renal) was greater than 100 µM and the TGI (SR leukemia) was greater than 100 µM. The TGI (SF-295 CNS) was greater than 100 µM, the TGI (NCI-H226 lung) was greater than 100 µM and the TGI (KM12 colon) was greater than 100 µM. For the same compound, the TGI (T-47D breast) was greater than 100 µM, the TGI (NCI/ADR-RES ovarian) was greater than 100 µM and the TGI (COLO 205 colon) was greater than 100 µM. The TGI (TK-10 renal) was greater than 100 µM, the TGI (UACC-62 melanoma) was greater than 100 µM and the TGI (HL-60(TB) leukemia) was greater than 100 µM. The TGI (OVCAR-8 ovarian) was greater than 100 µM, the TGI (ACHN renal) was greater than 100 µM and the TGI (HOP-92 NSCLC) was greater than 100 µM. The TGI (HCC-2998 colon) was greater than 100 µM, the TGI (U251 CNS) was greater than 100 µM and the TGI (IGROV1 ovarian) was greater than 100 µM. It also gave a TGI (DU-145 prostate) greater than 100 µM, a TGI (OVCAR-5 ovarian) greater than 100 µM and a TGI (RPMI-8226 leukemia) greater than 100 µM. The TGI (M14 melanoma) was greater than 100 µM, the TGI (SK-MEL-5 melanoma) was greater than 100 µM and the TGI (RXF 393 renal) was greater than 100 µM. It also gave a TGI (HCT-116 colon) greater than 100 µM, a TGI (CAKI-1 renal) greater than 100 µM and a TGI (K-562 leukemia) greater than 100 µM. The TGI (HOP-62 NSCLC) was greater than 100 µM, the TGI (HCT-15 colon) was greater than 100 µM and the TGI (CCRF-CEM leukemia) was greater than 100 µM. It also gave a TGI (UACC-257 melanoma) greater than 100 µM, a TGI (SNB-75 CNS) greater than 100 µM and a TGI (LOX IMVI melanoma) greater than 100 µM. The TGI (NCI-H522 lung) was greater than 100 µM, the TGI (OVCAR-3 ovarian) was greater than 100 µM and the TGI (SK-MEL-28 melanoma) was greater than 100 µM. The TGI (SK-MEL-2 melanoma) was greater than 100 µM, the TGI (EKVX NSCLC) was greater than 100 µM and the TGI (MOLT-4 leukemia) was greater than 100 µM. The TGI (NCI-H23 lung) was greater than 100 µM, the TGI (786-0 renal) was greater than 100 µM and the TGI (PC-3 prostate) was greater than 100 µM. It also gave a TGI (MALME-3M melanoma) greater than 100 µM, a TGI (A549 NSCLC) greater than 100 µM and a TGI (OVCAR-4 ovarian) greater than 100 µM. It also gave a TGI (SNB-19 CNS) greater than 100 µM.

`Nc1nc2c(ncn2Cc2ccc(CO)cc2)c(=O)[nH]1` was tested, and the TGI (HS 578T breast) was greater than 100 µM, the TGI (MDA-MB-435) was greater than 100 µM and the TGI (MDA-MB-231 breast) was greater than 100 µM. The TGI (A498 renal) was greater than 100 µM, the TGI (SK-OV-3 ovarian) was greater than 100 µM and the TGI (NCI-H460 lung) was greater than 100 µM. For the same compound, the TGI (BT-549 breast) was greater than 100 µM, the TGI (HT29 colon) was greater than 100 µM and the TGI (SF-268 CNS) was greater than 100 µM. It also gave a TGI (SW-620 colon) greater than 100 µM, a TGI (UO-31 renal) greater than 100 µM and a TGI (SR leukemia) greater than 100 µM. The TGI (SF-295 CNS) was greater than 100 µM, the TGI (NCI-H226 lung) was greater than 100 µM and the TGI (KM12 colon) was greater than 100 µM. It also gave a TGI (T-47D breast) greater than 100 µM, a TGI (NCI/ADR-RES ovarian) greater than 100 µM and a TGI (COLO 205 colon) greater than 100 µM. It also gave a TGI (TK-10 renal) greater than 100 µM, a TGI (UACC-62 melanoma) greater than 100 µM and a TGI (HL-60(TB) leukemia) greater than 100 µM. The TGI (OVCAR-8 ovarian) was greater than 100 µM, the TGI (ACHN renal) was greater than 100 µM and the TGI (HOP-92 NSCLC) was greater than 100 µM. The TGI (U251 CNS) was greater than 100 µM, the TGI (IGROV1 ovarian) was greater than 100 µM and the TGI (DU-145 prostate) was greater than 100 µM. It also gave a TGI (OVCAR-5 ovarian) greater than 100 µM, a TGI (RPMI-8226 leukemia) greater than 100 µM and a TGI (M14 melanoma) greater than 100 µM. It also gave a TGI (SK-MEL-5 melanoma) greater than 100 µM, a TGI (RXF 393 renal) greater than 100 µM and a TGI (HCT-116 colon) greater than 100 µM. It also gave a TGI (CAKI-1 renal) greater than 100 µM, a TGI (K-562 leukemia) greater than 100 µM and a TGI (HOP-62 NSCLC) greater than 100 µM. For the same compound, the TGI (HCT-15 colon) was greater than 100 µM, the TGI (CCRF-CEM leukemia) was greater than 100 µM and the TGI (MCF7 breast) was greater than 100 µM. The TGI (SN12C renal) was greater than 100 µM, the TGI (UACC-257 melanoma) was greater than 100 µM and the TGI (SNB-75 CNS) was greater than 100 µM. The TGI (LOX IMVI melanoma) was greater than 100 µM, the TGI (NCI-H522 lung) was greater than 100 µM and the TGI (OVCAR-3 ovarian) was greater than 100 µM. For the same compound, the TGI (SK-MEL-28 melanoma) was greater than 100 µM, the TGI (SK-MEL-2 melanoma) was greater than 100 µM and the TGI (EKVX NSCLC) was greater than 100 µM. The TGI (MOLT-4 leukemia) was greater than 100 µM, the TGI (NCI-H23 lung) was greater than 100 µM and the TGI (786-0 renal) was greater than 100 µM. It also gave a TGI (SF-539 CNS) greater than 100 µM, a TGI (PC-3 prostate) greater than 100 µM and a TGI (MALME-3M melanoma) greater than 100 µM. It also gave a TGI (A549 NSCLC) greater than 100 µM, a TGI (OVCAR-4 ovarian) greater than 100 µM and a TGI (SNB-19 CNS) greater than 100 µM.

In the case of `COc1cc2c3c(c4cc(OC)c(OC)cc4c2cc1OC)C(=O)C1CCC(=O)N1C3` (stereo not drawn), the TGI (HS 578T breast) is reported as greater than 100 µM, the TGI (MDA-MB-435) is reported as greater than 100 µM and the TGI (MDA-MB-231 breast) is reported as greater than 100 µM. It also gave a TGI (A498 renal) greater than 100 µM, a TGI (SK-OV-3 ovarian) of 61.1 µM and a TGI (NCI-H460 lung) greater than 100 µM. For the same compound, the TGI (BT-549 breast) was greater than 100 µM, the TGI (SF-268 CNS) was greater than 100 µM and the TGI (SW-620 colon) was greater than 100 µM. The TGI (SF-295 CNS) was greater than 100 µM, the TGI (KM12 colon) was greater than 100 µM and the TGI (T-47D breast) was greater than 100 µM. For the same compound, the TGI (NCI/ADR-RES ovarian) was greater than 100 µM, the TGI (COLO 205 colon) was greater than 100 µM and the TGI (TK-10 renal) was 54.5 µM. It also gave a TGI (UACC-62 melanoma) greater than 100 µM, a TGI (HL-60(TB) leukemia) greater than 100 µM and a TGI (OVCAR-8 ovarian) greater than 100 µM. For the same compound, the TGI (ACHN renal) was 59.7 µM, the TGI (HOP-92 NSCLC) was 82.2 µM and the TGI (HCC-2998 colon) was greater than 100 µM. The TGI (U251 CNS) was greater than 100 µM, the TGI (IGROV1 ovarian) was 88.5 µM and the TGI (DU-145 prostate) was greater than 100 µM. For the same compound, the TGI (RPMI-8226 leukemia) was greater than 100 µM, the TGI (SK-MEL-5 melanoma) was greater than 100 µM and the TGI (RXF 393 renal) was 89.6 µM. For the same compound, the TGI (CAKI-1 renal) was 38.9 µM, the TGI (K-562 leukemia) was greater than 100 µM and the TGI (HOP-62 NSCLC) was 59.3 µM. The TGI (HCT-15 colon) was greater than 100 µM, the TGI (CCRF-CEM leukemia) was 30.8 µM and the TGI (MCF7 breast) was greater than 100 µM. It also gave a TGI (UACC-257 melanoma) greater than 100 µM, a TGI (SNB-75 CNS) of 32.2 µM and a TGI (LOX IMVI melanoma) greater than 100 µM. The TGI (NCI-H522 lung) was 23.3 µM, the TGI (OVCAR-3 ovarian) was greater than 100 µM and the TGI (SK-MEL-28 melanoma) was greater than 100 µM. It also gave a TGI (SK-MEL-2 melanoma) greater than 100 µM, a TGI (MOLT-4 leukemia) of 37.5 µM and a TGI (NCI-H23 lung) greater than 100 µM. It also gave a TGI (SF-539 CNS) of 39.8 µM, a TGI (PC-3 prostate) greater than 100 µM and a TGI (MALME-3M melanoma) of 83 µM. The TGI (OVCAR-4 ovarian) was greater than 100 µM.
